Each compound was assayed against T1, vanilloid receptor 1 (VR1/TRPV1 receptor) (Homo sapiens, UniProt Q8NER1) (assay: Functional testing on vanilloid receptor 1: FLIPR Ca2+ influx assay against capsaicin (Cap) in transfected CHO K1 cells (pharmacological method II)). Details: @ 1µM; human VR1 in CHO K1 cells; capsaicin; relative to maximum inhibition with 10 µM capsazepine; read-out: inhibition (as a percentage), printed in column (f) Ki (human being) [nM] Cap.
T1 construct: expressed in transfected cells; host or cells: CHO K1 cells (ECACC), stably transfected
T1 sequence (Q8NER1 whole entry): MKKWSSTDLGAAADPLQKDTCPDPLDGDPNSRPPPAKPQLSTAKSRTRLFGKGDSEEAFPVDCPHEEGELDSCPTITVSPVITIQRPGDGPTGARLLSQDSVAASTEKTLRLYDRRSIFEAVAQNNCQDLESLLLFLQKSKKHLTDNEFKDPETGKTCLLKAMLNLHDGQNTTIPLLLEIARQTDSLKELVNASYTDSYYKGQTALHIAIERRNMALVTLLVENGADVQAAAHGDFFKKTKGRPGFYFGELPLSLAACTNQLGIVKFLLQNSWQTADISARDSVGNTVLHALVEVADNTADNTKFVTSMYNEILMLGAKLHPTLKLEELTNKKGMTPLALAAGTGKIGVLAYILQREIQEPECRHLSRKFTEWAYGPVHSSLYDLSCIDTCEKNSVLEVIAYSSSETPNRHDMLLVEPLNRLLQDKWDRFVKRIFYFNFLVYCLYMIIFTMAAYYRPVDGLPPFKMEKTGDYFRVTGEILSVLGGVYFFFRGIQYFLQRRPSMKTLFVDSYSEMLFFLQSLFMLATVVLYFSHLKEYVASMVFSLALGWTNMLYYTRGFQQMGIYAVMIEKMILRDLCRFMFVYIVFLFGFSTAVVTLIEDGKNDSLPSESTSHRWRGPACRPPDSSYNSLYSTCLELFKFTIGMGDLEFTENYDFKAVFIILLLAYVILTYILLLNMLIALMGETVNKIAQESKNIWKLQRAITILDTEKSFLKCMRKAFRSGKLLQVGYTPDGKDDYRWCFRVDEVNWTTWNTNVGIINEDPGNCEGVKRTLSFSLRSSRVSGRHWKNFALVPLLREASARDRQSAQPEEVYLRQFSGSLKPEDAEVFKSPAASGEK
Assay type: cell-based
Parameters: key to (f) Ki (human being) [nM] Cap: agonist classification: AG = agonist
Source text: […]
For Ki in this document: 100 nM capsaicin.

inhibition at 1 µM | Compound
15% | CCOc1cc(C)cc(-n2nc(C(F)(F)F)cc2CNC(=O)Nc2ccc(COCCO)c(F)c2)c1 [A135, 1-[[2-(3-Ethoxy-5-methyl-phenyl)-5-(trifluoromethyl)-2H-pyrazol-3-yl]-methyl]-3-[3-fluoro-4-(2-hydroxy-ethoxy-methyl)-phenyl]-urea]
34% | O=C(NCc1cc(C(F)(F)F)nn1-c1cccc(F)c1)Nc1ccc(OCC(O)CO)cc1 (centres unmarked) [A26, 1-[4-(2,3-Dihydroxy-propoxy)-phenyl]-3-[[2-(3-fluorophenyl)-5-(trifluoromethyl)-2H-pyrazol-3-yl]-methyl]-urea]

Same assay, conditions: @ 5µM; human VR1 in CHO K1 cells; capsaicin; relative to maximum inhibition with 10 µM capsazepine; read-out: inhibition (as a percentage), printed in column (f) Ki (human being) [nM] Cap

inhibition at 5 µM | Compound
26% | CC(CO)(CO)c1ccc(NC(=O)NCc2cc(C(F)(F)F)nn2-c2cccc(Cl)c2)cc1 [A155, 1-[[2-(3-Chlorophenyl)-5-(trifluoromethyl)-2H-pyrazol-3-yl]-methyl]-3-[4-[2-hydroxy-1-(hydroxymethyl)-1-methyl-ethyl]-phenyl]-urea]

Same assay, conditions: human VR1 in CHO K1 cells; AG printed instead of a Ki

Compound | (f) Ki (human being) [nM] Cap: agonist classification
COCCOc1ccc(NC(=O)NCc2cc(C(C)(C)C)nn2-c2cccc(Cl)c2)cc1F [A17, 1-[[5-tert-Butyl-2-(3-chlorophenyl)-2H-pyrazol-3-yl]-methyl]-3-[3-fluoro-4-(2-methoxy-ethoxy)-phenyl]-urea] | AG
CC(C(=O)NCc1cc(C(C)(C)C)nn1-c1cccc(C(F)(F)F)c1)c1ccc(CO)c(F)c1 (centres unmarked) [A47, N-[[5-tert-Butyl-2-[3-(trifluoromethyl)phenyl]-2H-pyrazol-3-yl]-methyl]-2-[3-fluoro-4-(hydroxymethyl)-phenyl]-propionamide] | AG
COc1cc(NC(=O)NCc2cc(C(F)(F)F)nn2-c2cccc(Cl)c2)ccc1O [A15, 1-[[2-(3-Chlorophenyl)-5-(trifluoromethyl)-2H-pyrazol-3-yl]-methyl]-3-(4-hydroxy-3-methoxy-phenyl)-urea] | AG
COc1cc(C(C)C(=O)NCc2cc(C(C)(C)C)nn2-c2cccc(Cl)c2)ccc1CO (centres unmarked) [A49, N-[[5-tert-Butyl-2-(3-chlorophenyl)-2H-pyrazol-3-yl]-methyl]-2-[4-(hydroxymethyl)-3-methoxy-phenyl]-propionamide] | AG

The remaining lines, values ahead:

(f) Ki (human being) [nM] Cap: agonist classification | Compound
AG | CC(C)(C)c1cc(CNC(=O)Nc2ccc(CCO)c(F)c2)n(-c2cccc(Cl)c2)n1 [A140, 1-[[5-tert-Butyl-2-(3-chlorophenyl)-2H-pyrazol-3-yl]-methyl]-3-[3-fluoro-4-(2-hydroxy-ethyl)-phenyl]-urea]
AG | CC(C(=O)NCc1cc(C(C)(C)C)nn1-c1ccc(F)c(Cl)c1)c1ccc(CO)c(F)c1 (centres unmarked) [A41, N-[[5-tert-Butyl-2-(3-chloro-4-fluoro-phenyl)-2H-pyrazol-3-yl]-methyl]-2-[3-fluoro-4-(hydroxymethyl)-phenyl]-propionamide]
AG | CC(C(=O)NCc1cc(C(C)(C)C)nn1-c1cccc(Cl)c1)c1ccc(CO)c(F)c1 (centres unmarked) [A32, N-[[5-tert-Butyl-2-(3-chlorophenyl)-2H-pyrazol-3-yl]-methyl]-2-[3-fluoro-4-(hydroxymethyl)-phenyl]-propionamide]

Same assay, conditions: read-out: (f) Ki (human being) [nM] Cap

Compound | Ki
COc1c(F)cc(C(C)C(=O)NCc2cc(C3CC3)nn2-c2cccc(Cl)c2)cc1F (centres unmarked) [A3, N-[[2-(3-Chlorophenyl)-5-cyclopropyl-2H-pyrazol-3-yl]-methyl]-2-(3,5-difluoro-4-methoxy-phenyl)-propionamide] | 6 nM
COc1c(F)cc(CC(=O)NCc2cc(C(F)(F)F)nn2-c2ccc(F)c(Cl)c2)cc1F [A7, N-[[2-(3-Chloro-4-fluoro-phenyl)-5-(trifluoromethyl)-2H-pyrazol-3-yl]-methyl]-2-(3,5-difluoro-4-methoxy-phenyl)-acetamide] | 26 nM
COCCOCc1ccc(NC(=O)NCc2cc(C(F)(F)F)nn2-c2cccc(Cl)c2)cc1F [A128, 1-[[2-(3-Chlorophenyl)-5-(trifluoromethyl)-2H-pyrazol-3-yl]-methyl]-3-[3-fluoro-4-(2-methoxy-ethoxy-methyl)-phenyl]-urea] | 67 nM
Cc1cccc(-n2nc(C(F)(F)F)cc2CNC(=O)C(C)c2ccc(COCCO)c(F)c2)c1 (centres unmarked) [A123, 2-[3-Fluoro-4-(2-hydroxy-ethoxy-methyl)-phenyl]-N-[[2-(m-tolyl)-5-(trifluoromethyl)-2H-pyrazol-3-yl]-methyl]-propionamide] | 24 nM
O=C(NCc1cc(C(F)(F)F)nn1-c1cccc(Cl)c1)Nc1ccc(C2(O)CC2)c(F)c1 [A106, 1-[[2-(3-Chlorophenyl)-5-(trifluoromethyl)-2H-pyrazol-3-yl]-methyl]-3-[3-fluoro-4-(1-hydroxy-cyclopropyl)-phenyl]-urea] | 31 nM
CC(C)(C)c1cc(CNC(=O)Nc2ccc(C3(O)COC3)c(F)c2)n(-c2cccc(Cl)c2)n1 [A109, 1-[[5-tert-Butyl-2-(3-chlorophenyl)-2H-pyrazol-3-yl]-methyl]-3-[3-fluoro-4-(3-hydroxy-oxetan-3-yl)-phenyl]-urea] | 43 nM
O=C(NCc1cc(C(F)(F)F)nn1-c1cccc(Cl)c1)Nc1ccc(CO)cc1 [A28, 1-[[2-(3-Chlorophenyl)-5-(trifluoromethyl)-2H-pyrazol-3-yl]-methyl]-3-[4-(hydroxymethyl)-phenyl]-urea] | 22 nM
CC(C(=O)NCc1cc(C2CC2)nn1-c1cccc(Cl)c1)c1ccc(CO)c(F)c1 (centres unmarked) [A31, N-[[2-(3-Chlorophenyl)-5-cyclopropyl-2H-pyrazol-3-yl]-methyl]-2-[3-fluoro-4-(hydroxymethyl)-phenyl]-propionamide] | 3 nM
O=C(Cc1ccc(COCCO)c(F)c1)NCc1cc(C(F)(F)F)nn1-c1cccc(Cl)c1 [A113, N-[[2-(3-Chlorophenyl)-5-(trifluoromethyl)-2H-pyrazol-3-yl]-methyl]-2-[3-fluoro-4-(2-hydroxy-ethoxy-methyl)-phenyl]-acetamide] | 63 nM
O=C(NCc1cc(C(F)(F)F)nn1-c1cccc(Cl)c1)Nc1ccc(OCCO)c(F)c1 [A20, 1-[[2-(3-Chlorophenyl)-5-(trifluoromethyl)-2H-pyrazol-3-yl]-methyl]-3-[3-fluoro-4-(2-hydroxy-ethoxy)-phenyl]-urea] | 37 nM
CC(C)(C)c1cc(CNC(=O)Nc2ccc(CO)cc2)n(-c2cccc(Cl)c2)n1 [A27, 1-[[5-tert-Butyl-2-(3-chlorophenyl)-2H-pyrazol-3-yl]-methyl]-3-[4-(hydroxymethyl)-phenyl]-urea] | 1 nM

Results, then the compound that gave them:

Ki | Compound
18 nM | CCOc1cc(C)cc(-n2nc(C(F)(F)F)cc2CNC(=O)Nc2ccc(CO)c(F)c2)c1 [A93, 1-[[2-(3-Ethoxy-5-methyl-phenyl)-5-(trifluoromethyl)-2H-pyrazol-3-yl]-methyl]-3-[3-fluoro-4-(hydroxymethyl)-phenyl]-urea]
51 nM | COc1ccc(Cl)cc1-n1nc(C(F)(F)F)cc1CNC(=O)Nc1ccc(CO)c(F)c1 [A91, 1-[[2-(5-Chloro-2-methoxy-phenyl)-5-(trifluoromethyl)-2H-pyrazol-3-yl]-methyl]-3-[3-fluoro-4-(hydroxymethyl)-phenyl]-urea]
27 nM | CC(C(=O)NCc1cc(C(F)(F)F)nn1-c1ccc(F)c(F)c1)c1ccc(CO)c(F)c1 (centres unmarked) [A40, N-[[2-(3,4-Difluoro-phenyl)-5-(trifluoromethyl)-2H-pyrazol-3-yl]-methyl]-2-[3-fluoro-4-(hydroxymethyl)-phenyl]-propionamide]
41 nM | Cc1cccc(-n2nc(C(F)(F)F)cc2CNC(=O)Nc2ccc(CO)c(F)c2)c1F [A76, 1-[3-Fluoro-4-(hydroxymethyl)-phenyl]-3-[[2-(2-fluoro-3-methyl-phenyl)-5-(trifluoromethyl)-2H-pyrazol-3-yl]-methyl]-urea]
19 nM | Cc1ccc(-n2nc(C(F)(F)F)cc2CNC(=O)Nc2ccc(CO)c(F)c2)cc1C [A75, 1-[[2-(3,4-Dimethyl-phenyl)-5-(trifluoromethyl)-2H-pyrazol-3-yl]-methyl]-3-[3-fluoro-4-(hydroxymethyl)-phenyl]-urea]
42 nM | Cc1ccc(-n2nc(C(F)(F)F)cc2CNC(=O)Nc2ccc(CO)c(F)c2)cc1 [A71, 1-[3-Fluoro-4-(hydroxymethyl)-phenyl]-3-[[2-(p-tolyl)-5-(trifluoromethyl)-2H-pyrazol-3-yl]-methyl]-urea]
30 nM | O=C(NCc1cc(C(F)(F)F)nn1-c1cccc(F)c1)Nc1ccc(CO)c(F)c1 [A62, 1-[3-Fluoro-4-(hydroxymethyl)-phenyl]-3-[[2-(3-fluorophenyl)-5-(trifluoromethyl)-2H-pyrazol-3-yl]-methyl]-urea]
84 nM | CC(C)(C)c1cc(CNC(=O)Nc2ccc(C(C)(CO)CO)c(F)c2)n(-c2cccc(Cl)c2)n1 [A156, 1-[[5-tert-Butyl-2-(3-chlorophenyl)-2H-pyrazol-3-yl]-methyl]-3-[3-fluoro-4-[2-hydroxy-1-(hydroxymethyl)-1-methyl-ethyl]-phenyl]-urea]
2 nM | CC(C)(C)c1cc(CNC(=O)Nc2ccc(CO)c(F)c2)n(-c2ccc(F)c(F)c2)n1 [A57, 1-[[5-tert-Butyl-2-(3,4-difluoro-phenyl)-2H-pyrazol-3-yl]-methyl]-3-[3-fluoro-4-(hydroxymethyl)-phenyl]-urea]
20 nM | CCOc1ccc(-n2nc(C(F)(F)F)cc2CNC(=O)Nc2ccc(CO)c(F)c2)cc1C [A79, 1-[[2-(4-Ethoxy-3-methyl-phenyl)-5-(trifluoromethyl)-2H-pyrazol-3-yl]-methyl]-3-[3-fluoro-4-(hydroxymethyl)-phenyl]-urea]
43 nM | COc1cccc(-n2nc(C(F)(F)F)cc2CNC(=O)Nc2ccc(CO)c(F)c2)c1 [A67, 1-[3-Fluoro-4-(hydroxymethyl)-phenyl]-3-[[2-(3-methoxyphenyl)-5-(trifluoromethyl)-2H-pyrazol-3-yl]-methyl]-urea]
